Laboratory results published in US10792263B2, “Method of treating an individual having a microbial infection” (Sun Yat-sen University, priority 2012, dated 2020).
Like-named read-outs stand apart in the source and are kept apart here.

What was measured:
E. coli K12 BW25113 [1] = settings: for increase of bactericidal effect, serum plus glycine versus serum: 100 μL human serum plus 100 mM glycine
Method: (§1) Sample preparation: Single colonies of the parent strain E. coli K12 BW25113 are picked from Luria-Bertani (LB) agar plate, inoculated into 5 mL LB medium and incubated with shaking at 200 rpm, 37° C. for 16 hours. Cultures are then diluted 1:100 (v/v) in 200 mL fresh LB medium and grow to an OD600 of 1.0 at 37° C. with shaking. Cells are collected by centrifugation at 8000 rpm for 10 minutes at 4° C. and washed with 0.85% saline once.
To understand whether glycine enhances the bactericidal effect of serum, experiments are carried out in 3 scenarios: the same volume of human serum mixed with different concentrations of glycine, different volumes of human serum mixed with the same concentration of glycine, and these mixtures are treated for different incubation periods.
Bacterial cells are prepared according to Example 1.1. Glycine is added to a final concentration of 0, 5, 10, 30, 50 and 100 mM and the mixtures are cultured for 1 hour at 37° C. with shaking at 200 rpm. Then 100 μL of human serum or saline are added as test and control groups, respectively. Bacteria are cultured for 2 hours and collected by centrifugation. Cells are resuspended with 1 mL of saline. Live bacterial cells are counted on LB agar plate. Survival rate is calculated as follows: number of live bacteria cells after treatment with different concentrations of glycine supplementation/number of live bacteria cells after treatment with saline×100%.
Bacterial samples are prepared and added with 100 mM glycine and cultured for 1 hour at 37° C. with shaking at 200 rpm. Then 0, 20, 40, 60, 80 or 100 μL human serum is added and cultured for 2 hours at 37° C. with shaking at 200 rpm. The controls are not mixed with glycine but only with different volumes of human serum. Bacteria are collected by centrifugation and resuspended with 1 mL of saline for spot-plate counting. The survival rate is calculated as follows: the number of live bacteria cells after treatment with glycine plus different volumes of human serum/the number of live cells after treatment with only human serum×100%.
The prepared bacterial samples are divided into 4 groups and treated separately as follows: with 100 mM glycine, 100 μL human serum, 100 μL human serum plus 100 mM glycine or saline alone as control. The mixtures are cultured for 0.5, 1, 2, 3, and 4 hours at 37° C. with shaking at 200 rpm. Bacteria are collected by centrifugation and resuspended in 1 mL saline. Bacteria are counted using LB agar plates. The survival rate is calculated as follows: the number of live bacteria after treatment with serum and/or glycine in different times/the number of live bacteria in the saline control group×100%.

[2] = tested on: E. coli K12 BW25113, E. coli clinical strain Y17, beta-hemolytic Streptococcus, Vibro alginolyticus, Vibro parahaemolyticus, Pseudomonas aeruginosa and …; settings: 125-175 μL human serum plus 100-150 mM glycine, 4 hours
Method: as §1

[3] = tested on: E. coli K12 BW25113, E. coli clinical strain Y17, Vibro alginolyticus, Vibro parahaemolyticus, Pseudomonas aeruginosa and Staphylococcus aureus; settings: 100 μL serum/plasma of different animals plus 100 mM glycine, 4 hour
Method: as §1
A variety of bacteria (E. coli K12 BW25113, E. coli clinical strain Y17, Vibro alginolyticus, Vibro parahaemolyticus, Pseudomonas aeruginosa and Staphylococcus aureus) are cultured as described in Example 1.1. Aliquots of 3 mL bacteria are collected with OD600 of 1.0. Then, 100 μL serum/plasma from different animals or 100 μL serum/plasma of different animals plus 100 mM glycine are added and 100 mM glycine alone is used a control. Cells are cultured for 4 hour at 37° C. with shaking at 200 rpm. Bacteria are resuspended with 1 mL of saline. Absorbance is measured at 600 nm.

E. coli K12 BW25113 [4] = settings: mice, 6 times, blood at 48 hours
Method: (§2) A total of 15 6-week-old mice (purchased from the Laboratory Animals Center of Sun Yat-sen University) are randomly divided into three groups: saline control group and two treatment groups are administered with 3.25 or 6.5 mg glycine/mouse. The compound is intravenously administered at 3.25 or 6.5 mg glycine/injection/mouse every 12 hours and 6 times in total. Mice are intravenously injected 1×10^6 E. coli K12 BW25113 or E. coli clinical isolate Y17 at 12 hours after the last administration of glycine. Blood is withdrawn from mouse tail vein at 48 hours. The clearance of bacteria is determined by plate counting.

[5] = tested on: E. coli clinical isolate Y17; settings: mice, 6 times, blood at 48 hours
Method: as §2

E. coli = test: Human serum bactericidal assay with threonine, OD600 survival rate; type: cell-based, Escherichia coli; settings: 2 hours
Method: The prepared bacterial cells are divided to four groups. […] Absorbance is measured at 600 nm Survival rate is calculated as follows: the OD in groups after treatment with serum, threonine or serum plus threonine/the OD in the control group treated with saline×100%. […] Certain bactericidal effect is detected in the group with serum alone. Compared with the group with serum alone, the group with serum plus threonine has a significant 1.5-fold increase of bactericidal effect.

[6] = 3.25 mg glycine/injection i.v. every 12 hours
[7] = 6.5 mg glycine/injection i.v. every 12 hours

## NCC(=O)O [glycine]
E. coli K12 BW25113 [1]; 5 mM glycine, 1 h preincubation, then 100 μL human serum for 2 hours, 37° C.
  increase of the serum bactericidal effect: 1.36 fold
E. coli K12 BW25113 [1]; 100 mM glycine plus 100 μL human serum, 2 hours, versus human serum only
  elevation of serum bactericidal effect, serum volume series: 86 fold
E. coli K12 BW25113 [1]; 100 mM glycine without serum, 0.5 to 4 hours
  bactericidal effect of glycine alone: no bactericidal effect
E. coli K12 BW25113 [1]; 100 mM glycine, 1 h preincubation, then 100 μL human serum for 2 hours, 37° C.
  increase of the serum bactericidal effect (highest effect): ~86 fold
E. coli K12 BW25113 [1]; after 0.5 hours
  increase of bactericidal effect, serum plus glycine versus serum: 2 fold
E. coli K12 BW25113 [1]; after 1 hour
  increase of bactericidal effect, serum plus glycine versus serum: 77 fold
E. coli K12 BW25113 [1]; after 4 hours
  increase of bactericidal effect, serum plus glycine versus serum: 120 fold
[2]
  increase of serum bactericidal effect, lower bound over all bacteria tested: more than 1 fold
  increase of serum bactericidal effect, maximum over all bacteria tested: up to 4.13 fold
[3]
  increase of bactericidal effect of animal serum/plasma, maximum: ~10 fold
  increase of bactericidal effect of animal serum/plasma, minimum: ≥ 1.5 fold
E. coli K12 BW25113 [4]; [6]
  Clearance rate: 89.32%
E. coli K12 BW25113 [4]; [7]
  Clearance rate: 96.85%
[5]; [6]
  Clearance rate: 32.95%
[5]; [7]
  Clearance rate: 52.53%

## C[C@@H](O)[C@H](N)C(=O)O [threonine]
E. coli; 100 mM threonine without serum
  bactericidal effect of threonine alone: no bactericidal effect
E. coli; 100 μL human serum plus 100 mM threonine
  increase of bactericidal effect, serum plus threonine versus serum alone: 1.5 fold
